# In patent US20100204116A1, “USE OF CALCITONIN AS ANTI-ANGIOGENIC AGENT” (priority 2007, published 2010):
# Columns and labels:
# HIV-1IIIB = assay: HIV-1 antiviral assay (CPE reduction, MTS) in CEM-SS cells; conditions: peptide 10 micrograms per ml, 6 days post-infection
# CEM-SS cells = assay: Cytotoxicity (MTS cell viability) in the HIV-1 assay; conditions: CEM-SS cells plus peptide only, 10 micrograms per ml
# [1] = system: hepatitis B virus (HBV) ayw strain; assay: HBV experimental assay system (secreted HBV DNA, TaqMan PCR); conditions: peptide 10 micrograms per ml; six days; HBV DNA in supernatant
# [2] = system: Primary Human endothelial cells (HUVEC); assay: Endothelial cell migration assay; type: cell-based; conditions: peptide 10 micrograms per ml, 22 hours
# Human A549 cells [3] = assay: Apoptosis induction assay (Annexin-5); type: cell-based; conditions: peptide 10 micrograms per ml, 24 hours
# HUVEC = assay: Endothelial tube formation assay; type: cell-based, human; conditions: peptide 10 micrograms per ml, 20 hours
# Source text: Positive control was vehicle only.
# TNF alpha = TNF alpha production assay (LPS-stimulated macrophages, ELISA); type: cell-based, human; conditions: peptide 10 micrograms per ml, lipopolysaccharide 200 ng/ml, overnight
# Source text: Not stimulated macrophages served as negative background control.
# RAW 264.7 cells = assay: Phagocytosis assay (Fluorescein-labeled Escherichia coli, flow cytometry); type: cell-based, mouse; conditions: peptide 10 micrograms per ml
# Protocol: RAW 264.7 (Mouse leukaemic monocyte macrophage cell line) cells were obtained from ATCC and grown in RPMI 1640 medium containing 10% FBS. […] After the cells were incubated for additional 60 min at 37° C. and allowed to ingest the Fluorescein-labeled Escherichia coli bacteria, cells were fixed with 1% paraformaldehyde. The samples were then analyzed by flow cytometry to determine the amount of phagocytosis as a function of brightness (the greater the phagocytic activity, the more fluorescence in the macrophage population). Data are reported as % positive and the mean fluorescence intensity (MFI) of positively stained cells.
# Human A549 cells [4] = assay: Propidium iodide cell cycle assay; type: cell-based; conditions: peptide 10 micrograms per ml, 24 hours
# [5] = system: Human Peripheral Blood Mononuclear Cells (PBMC); assay: B cell proliferation assay (SAC plus Interleukin-2, 3H-thymidine); type: cell-based; conditions: peptide 10 micrograms per ml
# [6] = system: Human Peripheral Blood Mononuclear Cells (PBMC); assay: T cell proliferation assay (PHA, 3H-thymidine); type: cell-based; conditions: peptide 10 micrograms per ml
# Human A549 cells [7] = assay: Apoptosis prevention assay (C2 ceramide, Annexin-5); type: cell-based; conditions: A549 cells pretreated 30 min with peptide 10 micrograms per ml, then C2 ceramide
# HCMV strain AD169 = assay: HCMV plaque reduction assay in MRC-5 cells; type: cell-based; conditions: peptide 10 micrograms per ml, 7-10 days
# Source text: Ganciclovir was used as positive control.
# spleen cells = assay: Th1/Th2 cytokine profiling assay (Ovalbumin-restimulated spleen cells, CBA kit); type: cell-based, Balb/c mice; conditions: peptide 10 micrograms per ml; Ovalbumin restimulation; 72 hours
# [8] = Cytotoxicity (CellTiter 96 cell viability) in the HCMV assay; conditions: human, MRC-5 cells (human embryonal lung fibroblasts)
# [9] = system: MRC-5 cells (human embryonal lung fibroblasts); assay: as above; conditions: MRC-5 cells; 6 days incubation; CellTiter 96
structure (smiles),measurement,setting,value
"Cc1cn([C@H]2C[C@H](N=[N+]=[N-])[C@@H](CO)O2)c(=O)[nH]c1=O [AZT, reference compound]",% CPE reduction in HIV-1 infected CEM-SS cells,HIV-1IIIB,99%
same,% Cell viability,CEM-SS cells,97%
CC[C@H](C)[C@H](NC(=O)[C@H](C)NC(=O)[C@@H](NC(=O)[C@H](CCC(N)=O)NC(=O)[C@@H]1CCCN1C(=O)[C@H](Cc1ccccc1)NC(=O)[C@@H](NC(=O)[C@H](Cc1c[nH]cn1)NC(=O)[C@H](Cc1ccccc1)NC(=O)[C@H](CCCCN)NC(=O)[C@H](CC(N)=O)NC(=O)[C@H](Cc1ccccc1)NC(=O)[C@H](CC(=O)O)NC(=O)[C@H](CCC(N)=O)NC(=O)[C@@H](NC(=O)[C@H](Cc1ccc(O)cc1)NC(=O)[C@@H](NC(=O)CNC(=O)[C@H](CC(C)C)NC(=O)[C@H](CCSC)NC(=O)[C@@H]1CSSC[C@H](N)C(=O)NCC(=O)N[C@@H](CC(N)=O)C(=O)N[C@@H](CC(C)C)C(=O)N[C@@H](CO)C(=O)N[C@@H]([C@@H](C)O)C(=O)N1)[C@@H](C)O)[C@@H](C)O)[C@@H](C)O)[C@@H](C)O)C(=O)NCC(=O)N[C@H](C(=O)NCC(=O)N[C@@H](C)C(=O)N1CCC[C@H]1C(N)=O)C(C)C [Calcitonin],% CPE reduction in HIV-1 infected CEM-SS cells,HIV-1IIIB,0.0%
same,% inhibition of HBV replication in HEP G2 cells,[1],31.0%
same,% inhibition of migration,[2],26%
same,% of induction,Human A549 cells [3],2.9%
same,% inhibition of tube formation,HUVEC,18%
same,% of LPS induction,TNF alpha,93.4%
same,% of control phagocytosis,RAW 264.7 cells,102.9%
same,Cell cycle analysis G0/G1,Human A549 cells [4],57.0
same,Cell cycle analysis G2/M,Human A549 cells [4],10.4
same,Cell cycle analysis S,Human A549 cells [4],32.6
same,% of SAC/IL2 induced control,[5],92.6%
same,% of PHA induced Control,[6],87.4%
same,% prevention of ceramide induced apoptosis,Human A549 cells [7],32.7%
same,% plaque reduction,HCMV strain AD169,5.8%
same,IFNγ spleen cells; TH1 response (% of control),spleen cells,63.7 % of control
same,IL-2 spleen cells (% of control),spleen cells,110.1 % of control
same,IL-4 spleen cells; TH2 response (% of control),spleen cells,0.0 % of control
same,IL-5 spleen cells; TH2 response (% of control),spleen cells,60.2 % of control
same,TNF-a spleen cells; TH1 response (% of control),spleen cells,116.4 % of control
same,viability at 144 h,[8],100%
"Nc1nc(O)c2ncn(COC(CO)CO)c2n1 [Ganciclovir, reference compound]",% Cell viability,[9],100%
